Data reported in article PMC10182956 (Archives of Toxicology, 2023).

Columns and labels:
[1] = test system: HepaRG cells; conditions: HepaRG 24 h, population level; threshold ± 2 standard deviations of the response at the two lowest concentrations
[2] = set-up: method as in Literature column of Supplementary table 4; conditions: value added to httk database; ref Supplementary table 4; cited from earlier work
[3] = test system: HepaRG cells; conditions: HepaRG 24 h
Procedure: (§1) Cellular responses were quantified using a high-content imaging approach (Fig. 1). Based on cell viability assessment, concentrations below the EC50 level were tested in the high-content imaging assay. After 24 h chemical exposure, live cells were incubated with CellROX, which reflects hydroxyl radi [...

[4] = IVIVE reverse dosimetry: oral equivalent dose (OED) from BMC; conditions: IVIVE derived median over all positive imaging endpoints; rabbit simulation (R script); Table 2
From the text: Human data were used except where otherwise stated. […]
mc_OED_MEN_LD <- calc_mc_oral_equiv(2.835, chem.cas="58-27-5", model = "3compartmentss",species = "Rabbit",return.samples = T, samples=1000, httkpop = T) mc_OED_MEN_NM <- calc_mc_oral_equiv(8.1, chem.cas="58-27-5", model = "3compartmentss",species = "Rabbit", return.samples = T, samples=1000, httkpop = T) quantile_OED_MEN_LD <- quantile(mc_OED_MEN_LD, c(0.05, 0.5, 0.95), na.rm = TRUE) quantile_OED_MEN_NM <- quantile(mc_OED_MEN_NM, c(0.05, 0.5, 0.95), na.rm = TRUE)

[5] = Published in vivo pharmacokinetics (Css, clearance); conditions: hepatocytes (back-calculated, no incubation); in vitro intrinsic hepatic clearance calculated from in vivo clearance with formula 3; rabbit; read-out: Calculated Clint (ul/min/10^6 cells)
From the text: For the model evaluation, Css of selected reference chemicals were predicted using formula 1 with the same dose rate from the in vivo Css measurements. For chemicals with no in vitro intrinsic hepatic clearance and fraction unbound values available in the database included in the httk package, in silico predictions from (Sipes et al. [2017]) were loaded using load_sipes2017(). […]. The formula to calculate Clint was derived from the function calc_hepatic_clearance within the httk package. Predicted Css values were then compared to published in vivo Css values. If there was no published in vivo Css available, Css was then calculated based on published in vivo pharmacokinetic parameters using the following formula (Supplementary table 3)4 Css(mg/L)=(Dose×F)/(Cl×dosinginterval)
Supplementary table 3. Comparison of benchmark concentration and predicted Css with published pharmacokinetic values. Where indicated, in vivo derived Css values were calculated using following formula: Css = (Dose*F)/(Cl*dosing interval) or Css = k0/Cl with F = bioavailability, Cl = clearance, k0 = infusion rate and Css = steady state concentration.

[6] = test system: HepaRG cells; test: Cell viability assessment (WST-1 assay); assay type: cell-based, human; conditions: Homo sapiens, 24 h exposure, reference chemicals, 95% CI in brackets, read-out: EC50 µM (95% CI) from cell viability (WST-1)
From the text: Undifferentiated HepaRG cells were purchased from Biopredic international (Saint Grégoire, France). HepaRG cells have unlimited growth capacity and phenotypic stability, stable enzymatic activities over 4 weeks of cultivation, and similar metabolic function to primary human hepatocytes, and also avoid limitations of primary cells such as donor variability and phenotypic instability (Aninat et al. [2006]; Guillouzo et al. [2007]; Lambert et al. [2009]; Lübberstedt et al. [2011]; Andersson et al. [2012]). The line contains two cell types, hepatocyte-like and cholangiocyte-like cells (Parent et al. [2004]), which allows for elucidation of cell-specific toxicity (Jossé et al. [2008]). Cells were seeded at a density of approximately 27′000 cells/cm^2 into a 150 × 25 mm petri dish and were cultured for 2 weeks in William’s E medium (cat. nr.: 32,551,020, ThermoFisher Scientific, Massachusetts, USA) supplemented with 2 mM glutamine, 10% (v/v) fetal bovine serum (FBS) good forte (cat. nr.: P40-47,500, PAN-Biotech, Aidenbach, Germany), 100 U/ml penicillin and 100 µg/ml streptomycin (cat. nr.: 15,140,122, ThermoFisher Scientific, Massachusetts, USA), 5 µg/ml Gibco recombinant AOF insulin (cat. nr.: A11382II, ThermoFisher Scientific, Massachusetts, USA) and 50 µM hydrocortisone hemisuccinate (cat. nr.: H4881, Sigma-Aldrich, St. Louis, USA) at 37 °C and 5% CO2. Differentiation was induced by culturing the cells for another 2 weeks in the above mentioned medium supplemented with 1.7% DMSO. After 4 weeks in culture, differentiated HepaRG cells were seeded at a high density of approximately 227′000 cells/cm^2 (72,000 cells/well with 100 µl per well) into black 96-well plates with a clear bottom (cat.nr.: 3603, Corning, New York, USA) and maintained for 10 days. After 10 days, cells were first adapted to treatment medium (culture medium containing 0.5% DMSO and 2% FBS) for 48 h and then used for cell viability and high-content imaging analysis.
Cell viability was analyzed using the WST-1 assay which is based on the measurement of mitochondrial dehydrogenase activity (cat. nr: ab155902, Abcam, Cambridge, UK). HepaRG cells were exposed to chemicals at defined concentrations for 24 h. Triton X-100 (0.01%) was a positive control. One hour before the end of incubation period, 10 µl of WST-1 reagent was added to each well, quickly mixed by shaking the plate, and returned to the cell culture incubator (37 °C, 5% CO2). After 1 h, absorbance was measured (450 nm, reference wavelength 620 nm) using a plate reader (Infinite M200 Pro, Tecan group, Männerdorf, Switzerland). Absorbance was then subtracted from the reference wavelength, corrected for background by subtracting values measured without cells, and then normalized to the solvent control, which was set to 100%. Dose–response data were fitted using drc package (Version 3.0.1) (Ritz et al. [2015]) in R 3.6.1. Data were from at least 3 independent experiments with 6 technical replicates per condition.

[7] = set-up: method as in Hu et al. 1996; conditions: fraction unbound plasma; rabbit; ref Hu et al. 1996; cited from earlier work
[8] = test system: HepaRG cells; test: cells; conditions: Homo sapiens, 24 h, read-out: NM: Benchmark concentration (µM) per imaging endpoint calculated with BMDS software
Procedure: as §1

[9] = test system: HepaRG cells; test: High-content imaging assay: lipid accumulation (Bodipy lipid droplets); assay type: cell-based; conditions: HepaRG 24 h
[10] = cited from earlier work

In the case of CC1=CC(=O)c2ccccc2C1=O [menadione], the “Oxidative stress response (in words)” value [1] is listed as “unexpected negative outcomes”, the LogP [2] is listed as 2.2 and the “Concentration at which increase of number of apoptotic cells (nuclear morphology) exceeded the threshold” value [3] is listed as 25 µM. The “OED” value [4] was 55.4 mg/kg/day, the hepatocyte CLint [5] was 58.3 µL/min/1e6 cells and the EC50 [6] was 59.1 µM. For the same compound, the Fup [7] was 0.2, the EC (BMC) [8] was 8.1 µM and the “Lipid accumulation response (in words)” value ([9]; population level, threshold ± 2 standard deviations of the response at the two lowest concentrations) was “increased in a dose-dependent manner”. The EC (BMC, 1 SD from control) ([9]; Homo sapiens, lipid accumulation, Supplementary table 3, read-out: LA: Benchmark concentration (µM) per imaging endpoint calculated with BMDS software) was 2.8 µM, the “In vivo Css (µM)” value ([10]; in rabbits, reference cell empty) was 12.6^4 µM and the “In vivo clearance” value ([10]; rabbit, ref Hu et al. 1996) was 49.32 L/h.
